Measurements as given in patent publication US20200216441A1, “PESTICIDALLY ACTIVE HETEROCYCLIC DERIVATIVES WITH SULFUR CONTAINING SUBSTITUENTS” (SYNGENTA PARTICIPATIONS AG, priority 2017, published 2020).

What was measured:
[1] = test system: Spodoptera littoralis (Egyptian Cotton Leaf Worm); assay: whole plant or invertebrate; conditions: in Gossypium barbadense, foliar, 72 h, read-out: control (mortality, anti-feeding effect, growth inhibition)
[2] = test system: Myzus persicae (Green Peach Aphid); assay: whole plant or invertebrate; conditions: foliar, 144 h
[3] = test system: Diabrotica Balteata (Corn Root Worm); assay: Diabrotica balteata (Corn Root Worm); conditions: in Zea mays, 96 h, read-out: effect in at least one of the two categories (mortality or growth inhibition)
[4] = test system: Plutella xylostella (Diamond Back Moth); assay: whole plant or invertebrate; type: in vivo; conditions: 120 h, application rate of 200 ppm, L2 larvae on treated artificial diet, 5 days after infestation, read-out: effect in at least one of the two categories (mortality or growth inhibition)
[5] = test system: Euschistus heros (Neotropical Brown Stink Bug); assay: whole plant or invertebrate; type: in vivo; conditions: 120 h, application rate of 200 ppm, N2 nymphs on sprayed soybean leaves, 5 days after infestation, read-out: effect in at least one of the two categories (mortality or growth inhibition)
[6] = test system: Bemisia tabaci (Cotton White Fly); conditions: in Gossypium hirsutum, foliar, 144 h
[7] = test system: Myzus persicae (Green Peach Aphid); assay: whole plant or invertebrate; type: in vivo; conditions: 144 h, test rate of 24 ppm, systemic, roots of infested pea seedlings in test solution, 6 days
[8] = test system: Tetranychus urticae (Two-Spotted Spider Mite); conditions: foliar, 192 h

CCS(=O)(=O)c1cc(OCCOC)cnc1-c1nc2cc(C(F)(F)F)ncc2n1C [Compound P8, 2-[3-ethylsulfonyl-5-(2-methoxyethoxy)-2-pyridyl]-3-methyl-6-(trifluoromethyl)imidazo[4,5-c]pyridine]
≥ 80%: mortality at 200 ppm [1] | mortality at 200 ppm [2] | mortality at 200 ppm [3] | percent effect (mortality or growth inhibition) at 200 ppm [4] | percent effect (mortality or growth inhibition) at 200 ppm [5] | mortality at 200 ppm [6] | mortality at 24 ppm [7]

CCS(=O)(=O)c1cc(OCC(F)(F)F)cnc1-c1nc2cc(C(F)(F)F)ncc2n1C [Compound P15, 2-[3-ethylsulfonyl-5-(2,2,2-trifluoroethoxy)-2-pyridyl]-3-methyl-6-(trifluoromethyl)imidazo[4,5-c]pyridine]
≥ 80%: mortality at 200 ppm [1] | mortality at 200 ppm [2] | mortality at 200 ppm [3] | percent effect (mortality or growth inhibition) at 200 ppm [4] | percent effect (mortality or growth inhibition) at 200 ppm [5] | mortality at 200 ppm [6] | mortality at 24 ppm [7]

CCS(=O)(=O)c1cc(OCC(F)F)cnc1-c1nc2cc(C(F)(F)F)ncc2n1C [Compound P16, 2-[5-(2,2-difluoroethoxy)-3-ethylsulfonyl-2-pyridyl]-3-methyl-6-(trifluoromethyl)imidazo[4,5-c]pyridine]
≥ 80%: mortality at 200 ppm [1] | mortality at 200 ppm [2] | mortality at 200 ppm [3] | percent effect (mortality or growth inhibition) at 200 ppm [4] | percent effect (mortality or growth inhibition) at 200 ppm [5] | mortality at 200 ppm [6] | mortality at 24 ppm [7]

CCS(=O)(=O)c1cc(OC(C)(C)CF)cnc1-c1nc2cc(C(F)(F)F)ncc2n1C [Compound P30, 2-[3-ethylsulfonyl-5-(2-fluoro-1,1-dimethyl-ethoxy)-2-pyridyl]-3-methyl-6-(trifluoromethyl)imidazo[4,5-c]pyridine]
≥ 80%: mortality at 200 ppm [1] | mortality at 200 ppm [2] | mortality at 200 ppm [3] | percent effect (mortality or growth inhibition) at 200 ppm [4] | percent effect (mortality or growth inhibition) at 200 ppm [5] | mortality at 200 ppm [6] | mortality at 24 ppm [7]

CCS(=O)(=O)c1cc(OC(C)F)cnc1-c1nc2cc(C(F)(F)F)ncc2n1C (stereo not shown) [Compound P40, 2-[3-ethylsulfonyl-5-(1-fluoroethoxy)-2-pyridyl]-3-methyl-6-(trifluoromethyl)imidazo[4,5-c]pyridine]
≥ 80%: mortality at 200 ppm [1] | mortality at 200 ppm [2] | mortality at 200 ppm [3] | percent effect (mortality or growth inhibition) at 200 ppm [4] | percent effect (mortality or growth inhibition) at 200 ppm [5] | mortality at 200 ppm [6] | mortality at 24 ppm [7]

CCS(=O)(=O)c1cc(OC2CC(F)(F)C2)cnc1-c1nc2cc(C(F)(F)F)ncc2n1C [Compound P42, 2-[5-(3,3-difluorocyclobutoxy)-3-ethylsulfonyl-2-pyridyl]-3-methyl-6-(trifluoromethyl)imidazo[4,5-c]pyridine]
≥ 80%: mortality at 200 ppm [1] | mortality at 200 ppm [2] | mortality at 200 ppm [3] | percent effect (mortality or growth inhibition) at 200 ppm [4] | percent effect (mortality or growth inhibition) at 200 ppm [5] | mortality at 200 ppm [6] | mortality at 24 ppm [7]

CCS(=O)(=O)c1cc(OCCCC#N)cnc1-c1nc2cc(C(F)(F)F)ncc2n1C [Compound P70, 4-[[5-ethylsulfonyl-6-[3-methyl-6-(trifluoromethyl)imidazo[4,5-c]pyridin-2-yl]-3-pyridyl]oxy]butanenitrile]
≥ 80%: mortality at 200 ppm [1] | mortality at 200 ppm [2] | percent effect (mortality or growth inhibition) at 200 ppm [4] | percent effect (mortality or growth inhibition) at 200 ppm [5] | mortality at 200 ppm [6] | mortality at 24 ppm [7]

CCS(=O)(=O)c1cc(OC(C)C)cnc1-c1nc2cc(S(=O)(=O)C(F)(F)F)ncc2n1C [Compound P72, 2-(3-ethylsulfonyl-5-isopropoxy-2-pyridyl)-3-methyl-6-(trifluoromethylsulfonyl)imidazo[4,5-c]pyridine]
≥ 80%: mortality at 200 ppm [1] | mortality at 200 ppm [2] | mortality at 200 ppm [3] | percent effect (mortality or growth inhibition) at 200 ppm [4] | percent effect (mortality or growth inhibition) at 200 ppm [5] | mortality at 200 ppm [6] | mortality at 24 ppm [7]

CCS(=O)(=O)c1cc(OCC(C)C)cnc1-c1nc2cc(C(F)(F)F)ncc2n1C [Compound P75, 2-(3-ethylsulfonyl-5-isobutoxy-2-pyridyl)-3-methyl-6-(trifluoromethyl)imidazo[4,5-c]pyridine]
≥ 80%: mortality at 200 ppm [1] | mortality at 200 ppm [2] | mortality at 200 ppm [3] | percent effect (mortality or growth inhibition) at 200 ppm [4] | percent effect (mortality or growth inhibition) at 200 ppm [5] | mortality at 200 ppm [6] | mortality at 24 ppm [7]

CCS(=O)(=O)c1cc(OC(C)C)cnc1-c1nc2cc([S+]([O-])C(F)F)ncc2n1C (stereo not shown) [Compound P87, 6-(difluoromethylsulfinyl)-2-(3-ethylsulfonyl-5-isopropoxy-2-pyridyl)-3-methyl-imidazo[4,5-c]pyridine]
≥ 80%: mortality at 200 ppm [1] | mortality at 200 ppm [2] | percent effect (mortality or growth inhibition) at 200 ppm [4] | mortality at 200 ppm [8] | percent effect (mortality or growth inhibition) at 200 ppm [5] | mortality at 24 ppm [7]

CCS(=O)(=O)c1cc(OC(C)C)cnc1-c1nc2cc(S(=O)(=O)C(F)F)ncc2n1C [Compound P88, 6-(difluoromethylsulfonyl)-2-(3-ethylsulfonyl-5-isopropoxy-2-pyridyl)-3-methyl-imidazo[4,5-c]pyridine]
≥ 80%: mortality at 200 ppm [1] | mortality at 200 ppm [2] | percent effect (mortality or growth inhibition) at 200 ppm [4] | mortality at 200 ppm [8] | percent effect (mortality or growth inhibition) at 200 ppm [5] | mortality at 24 ppm [7]

CCS(=O)(=O)c1cc(OC(CF)CF)ccc1-c1nc2cc(C(F)(F)F)ncc2n1C [Compound P100, 2-[2-ethylsulfonyl-4-[2-fluoro-1-(fluoromethyl)ethoxy]phenyl]-3-methyl-6-(trifluoromethyl)imidazo[4,5-c]pyridine]
≥ 80%: mortality at 200 ppm [1] | mortality at 200 ppm [2] | mortality at 200 ppm [3] | percent effect (mortality or growth inhibition) at 200 ppm [4] | percent effect (mortality or growth inhibition) at 200 ppm [5] | mortality at 200 ppm [6] | mortality at 24 ppm [7]

CCS(=O)(=O)c1cc(OCC2(C#N)CC2)ccc1-c1nc2cc(C(F)(F)F)ncc2n1C [Compound P101, 1-[[3-ethylsulfonyl-4-[3-methyl-6-(trifluoromethyl)imidazo[4,5-c]pyridin-2-yl]phenoxy]methyl]cyclopropanecarbonitrile]
≥ 80%: mortality at 200 ppm [1] | mortality at 200 ppm [2] | mortality at 200 ppm [3] | percent effect (mortality or growth inhibition) at 200 ppm [4] | percent effect (mortality or growth inhibition) at 200 ppm [5] | mortality at 200 ppm [6] | mortality at 24 ppm [7]

CCS(=O)(=O)c1cc(OCCSC)ccc1-c1nc2cc(C(F)(F)F)ncc2n1C [Compound P104, 2-[2-ethylsulfonyl-4-(2-methylsulfanylethoxy)phenyl]-3-methyl-6-(trifluoromethyl)imidazo[4,5-c]pyridine]
≥ 80%: mortality at 200 ppm [2] | mortality at 200 ppm [3] | mortality at 200 ppm [8] | percent effect (mortality or growth inhibition) at 200 ppm [5] | mortality at 200 ppm [6] | mortality at 24 ppm [7]
